In this test the target is T1, hmGluR1 receptor (Homo sapiens, UniProt Q13255).
T1 construct: expressed in transfected cells
In words: IC50 determination: intracellular calcium mobilization (FLIPR) upon Quisqualate stimulation in CHO cells stably expressing hmGluR1. Type of test: cell-based. As to conditions: against Quisqualate 1 μM (EC80). Put shortly: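 CHO cells stably expressing hmGluR1 were kept overnight in DMEM high glucose with GPT and 1 mM pyruvate, then loaded 2 h with Calcium 3 dye.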

Where [1] appears, read: class symbols, read-out: mGIuR 1 IC50.
Where [2] appears, read: FLIPR calcium mobilization, read-out: IC50 Class.
Setting [3] is: FLIPR calcium mobilization, read-out: mGluR1 IC50.

Molecules are shown by their SMILES. Where two headings read alike, the source gives them in different places.

T1 sequence (Q13255 19-1194): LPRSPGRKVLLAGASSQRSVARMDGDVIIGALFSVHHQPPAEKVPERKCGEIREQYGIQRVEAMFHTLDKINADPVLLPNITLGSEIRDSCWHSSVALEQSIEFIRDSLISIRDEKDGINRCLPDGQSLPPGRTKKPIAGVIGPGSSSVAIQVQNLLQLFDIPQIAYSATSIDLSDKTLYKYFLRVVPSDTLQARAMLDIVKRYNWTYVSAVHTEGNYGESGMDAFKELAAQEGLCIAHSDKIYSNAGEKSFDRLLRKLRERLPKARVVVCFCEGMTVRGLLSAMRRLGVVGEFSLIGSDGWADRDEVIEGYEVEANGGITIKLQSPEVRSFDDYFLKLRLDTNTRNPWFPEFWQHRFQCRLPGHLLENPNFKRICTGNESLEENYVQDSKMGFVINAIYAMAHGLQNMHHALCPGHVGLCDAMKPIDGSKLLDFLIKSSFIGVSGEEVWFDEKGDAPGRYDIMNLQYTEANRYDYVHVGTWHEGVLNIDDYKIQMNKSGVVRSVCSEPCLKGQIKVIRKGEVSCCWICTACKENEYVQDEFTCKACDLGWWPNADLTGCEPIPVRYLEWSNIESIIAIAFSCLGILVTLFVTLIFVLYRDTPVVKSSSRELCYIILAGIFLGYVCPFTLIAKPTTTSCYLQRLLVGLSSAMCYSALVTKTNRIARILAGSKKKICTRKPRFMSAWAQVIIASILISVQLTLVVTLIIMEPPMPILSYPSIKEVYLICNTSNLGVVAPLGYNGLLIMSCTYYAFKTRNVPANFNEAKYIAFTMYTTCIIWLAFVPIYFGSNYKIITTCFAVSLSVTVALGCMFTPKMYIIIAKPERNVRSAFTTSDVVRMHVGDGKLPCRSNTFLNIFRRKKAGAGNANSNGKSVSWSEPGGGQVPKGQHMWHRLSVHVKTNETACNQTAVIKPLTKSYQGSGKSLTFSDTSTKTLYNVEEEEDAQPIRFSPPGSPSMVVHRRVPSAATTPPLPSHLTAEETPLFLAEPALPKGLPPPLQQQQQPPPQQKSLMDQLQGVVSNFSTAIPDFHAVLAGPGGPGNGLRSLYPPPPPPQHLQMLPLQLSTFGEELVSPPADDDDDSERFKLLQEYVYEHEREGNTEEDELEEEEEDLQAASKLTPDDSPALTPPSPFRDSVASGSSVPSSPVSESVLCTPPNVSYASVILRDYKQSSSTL

As usually defined, the IC50 is the point on the concentration scale where inhibition reaches its midpoint. In the case of `Cc1cc(N(C)C)c2c(n1)sc1c(=O)n(-c3ccc4c(c3)CCO4)cnc12` [7CN], the concentration for half-maximal inhibition (IC50) under setting [1] was in the range of 50 to 150 nM.

As to `CN(C)c1ccnc2sc3c(=O)n(-c4cccs4)cnc3c12` [15AB], under setting [1], the IC50 was < 50 nM.

Take `CN(C)c1ccnc2sc3c(=O)n(-c4ccc(C5CC5)cc4F)cnc3c12` [137F]: the IC50 under setting [2] was 50 to 150 nM.

As to `O=c1c2sc3ncnc(NC4CC4)c3c2ncn1-c1ccc(Br)cc1` [95AU], the half-inhibitory concentration (IC50) is < 50 nM under setting [2] and 1.37 nM under setting [3].

On to `Cc1ccc(-n2cnc3c(sc4nccc(OCCO)c43)c2=O)cc1` [66E], for which the IC50 under setting [1] is > 1000 nM.

With `CN(C)c1cc(Cl)nc2sc3c(=O)n(C4CCCCC4)cnc3c12` [compound 83], the half-maximal inhibitory concentration (IC50) under setting [1] was 50 to 150 nM.

Regarding `C#CCn1cnc2c(sc3nccc(N(C)C)c32)c1=O` [7BH], the IC50 under setting [1] was > 1000 nM.

With `CCc1ccnc2sc3c(=O)n(-c4ccc(OC)cc4)cnc3c12` [29I], the IC50 under setting [2] is < 50 nM.

For the compound `CC1CCC(n2cnc3c(sc4nccc(N(C)C)c43)c2=O)CC1` (stereo not drawn) [15Z], the IC50 under setting [1] is < 50 nM.

For `Cc1ccc(-n2cnc3c(sc4nccc(NCC(C)(C)C)c43)c2=O)cc1` [28ES], the IC50 under setting [2] was > 1000 nM.

In the case of `O=c1c2sc3nccc(Oc4ccccc4)c3c2ncn1-c1ccc(Cl)cc1` [compound 176], the 50% inhibitory concentration (IC50) under setting [2] was > 1000 nM.

As for `C[C@@H](O)CNc1ccnc2sc3c(=O)n(-c4ccc(Br)cc4)cnc3c12` [28HB], the concentration for half-maximal inhibition (IC50) under setting [2] was < 50 nM.

Turning to `CN(C)c1ccnc2sc3c(=O)n(-c4ccc(C#N)cc4)cnc3c12` [7K], the IC50 under setting [1] was < 50 nM.

As to `CN(C)c1ccc(F)c2sc3c(=O)n(C4CCCCC4)cnc3c12` [compound 104], under setting [1], the IC50 is > 1000 nM.

`CN(C)c1ccnc2sc3c(=O)n(-c4ccc(C(N)=O)cc4)cnc3c12` [7AZ]: the IC50 under setting [1] was > 1000 nM.

In the case of `CC(=O)c1ccnc2sc3c(=O)n(-c4ccc(Cl)cc4)cnc3c12` [compound 184], under setting [2], the IC50 lay within 50 to 150 nM.

Take `CN(C)c1cncc2sc3c(=O)n(C4CCCCC4)cnc3c12` [37A]: the IC50 under setting [1] is 150 to 1000 nM.

Regarding `O=c1c2sc3nccc(NCCCCO)c3c2ncn1-c1ccc(Br)cc1` [28GV], the 50% inhibitory concentration (IC50) under setting [2] was < 50 nM.

`Cc1ccc(-n2cnc3c(sc4ncc(N)cc43)c2=O)cc1` [147A]: the IC50 under setting [1] was 150 to 1000 nM.

As for `Cc1ccc(-n2cnc3c(sc4ncc(Br)c(N)c43)c2=O)cc1` [173A], the IC50 under setting [2] is < 50 nM.

On to `Cc1nc2ccc(-n3cnc4c(sc5nccc(N(C)C)c54)c3=O)cc2o1` [7BT], for which, under setting [1], the IC50 is > 1000 nM.

Take `C#CCNc1ccnc2sc3c(=O)n(-c4ccc(C)cc4)cnc3c12` [28Z]: the IC50 is 1.47 nM under setting [3] and < 50 nM under setting [1].

As to `Cc1ccc(-n2cnc3c(sc4nccc(NCC5CC5)c43)c2=O)cc1` [28AY], the IC50 under setting [1] was in the range of 150 to 1000 nM.

`COc1ccc(Nc2ncnc3sc4c(=O)n(C5CC5)cnc4c23)cc1` [95GL]: the IC50 under setting [2] lay within 150 to 1000 nM.

In the case of `CCCOc1ccc(-n2cnc3c(sc4nccc(N(C)C)c43)c2=O)cc1` [7AG], under setting [1], the IC50 was > 1000 nM.

For the compound `COCCNc1nncc2sc3c(=O)n(-c4ccc(C)cc4)cnc3c12` [167D], the IC50 under setting [2] was > 1000 nM.

For the compound `COc1ccc(-n2cnc3c(sc4nccc(NCC(F)(F)F)c43)c2=O)c(F)c1` [28BM], the IC50 under setting [2] fell in the range of 50 to 150 nM.

Consider `O=c1c2sc3ncnc(NC4CC4)c3c2ncn1-c1ccc(Br)cc1F` [95AX], for which the IC50 under setting [2] is 50 to 150 nM.

Consider `COc1ccc(-n2cnc3c(sc4ncnc(Nc5ccccc5Cl)c43)c2=O)cc1` [190N], for which the IC50 under setting [2] was > 1000 nM.

Take `COc1ccnc2sc3c(=O)n(-c4ccncc4)cnc3c12` [161C]: under setting [2], the IC50 is > 1000 nM.

Turning to `CCNc1ncnc2sc3c(=O)n(-c4ccc5scnc5c4)cnc3c12` [95BJ], under setting [2], the IC50 is < 50 nM.

For `CNc1ccc(-n2cnc3c(sc4nccc(N(C)C)c43)c2=O)cc1` [7CF], the IC50 under setting [1] is < 50 nM.

On to `CN(C)c1ccnc2sc3c(=O)n(N4CC5CCCC5C4)cnc3c12` (stereo not drawn) [60E], for which the IC50 under setting [1] was < 50 nM.

On to `CN(C)c1ccnc2sc3c(=O)n(-c4ccc(Br)c(C(F)(F)F)c4)cnc3c12` [7DS], for which the IC50 under setting [1] was in the range of 150 to 1000 nM.

On to `CN(C)c1cccc2sc3c(=O)n(-c4ccc(F)c(F)c4)cnc3c12` [103P], for which the IC50 under setting [2] was 150 to 1000 nM.

Regarding `CCCN(C)c1ccnc2sc3c(=O)n(-c4ccc(OC)cc4)cnc3c12` [28AO], the IC50 under setting [1] was < 50 nM.

Turning to `O=c1c2sc3ncnc(NC4CC4)c3c2ncn1-c1ccc(C2CC2)cc1` [137C], the IC50 under setting [2] was 50 to 150 nM.

In the case of `CC(C)Oc1ccc(-n2cnc3c(sc4nccc(N(C)C)c43)c2=O)cc1` [7AQ], the IC50 under setting [1] was > 1000 nM.

Take `CCNc1ccnc2sc3c(=O)n(-c4ccc(O)cc4)cnc3c12` [131B]: under setting [1], the IC50 was < 50 nM.

As to `Cc1cc(N(C)C)c2c(n1)sc1c(=O)n(C3CCCCC3)cnc12` [7CZ], under setting [1], the IC50 is < 50 nM.

Consider `CCNc1ccnc2sc3c(=O)n(-c4ccccc4)c(C)nc3c12` [113F], for which the IC50 under setting [1] was < 50 nM.

With `COc1ccc(-n2cnc3c(sc4cncc(N(C)C)c43)c2=O)cc1` [37F], under setting [1], the IC50 was 50 to 150 nM.

As for `O=c1c2sc3nc(-c4cccs4)cc(C(F)(F)F)c3c2ncn1-c1ccccc1` [P-14], the IC50 under setting [1] lay in the range of 150 to 1000 nM.

As for `CN(CCO)c1ccnc2sc3c(=O)n(-c4ccc5occc5c4)cnc3c12` [28BE], the IC50 under setting [2] is < 50 nM.

For the compound `COCCNc1ccnc2sc3c(=O)n(-c4ccc(F)cc4)cnc3c12` [28GL], the IC50 under setting [2] is < 50 nM.

Turning to `Cc1nc(N)c2c(n1)sc1c(=O)n(-c3ccccc3)cnc12` [95EX], under setting [2], the 50% inhibitory concentration (IC50) is < 50 nM.

Take `COc1ccc(-n2cnc3c(sc4nccc(NCCC(C)O)c43)c2=O)cc1` (stereo not drawn) [28HP]: the IC50 under setting [2] is < 50 nM.

As to `COCCNc1ncnc2sc3c(=O)n(-c4ccc(Cl)cc4)cnc3c12` [95DI], under setting [2], the IC50 was < 50 nM.

On to `Cc1ccc(-n2cnc3c(sc4nccc(N(C)C)c43)c2=O)cc1F` [7DH], for which the IC50 under setting [3] worked out at 2.02 nM and the half-maximal inhibitory concentration (IC50) under setting [1] is < 50 nM.

For `CN(C)c1ccnc2sc3c(=O)n(-c4ccc(CO)cc4)cnc3c12` [7AY], the IC50 under setting [1] was < 50 nM.

Consider `CC(=O)c1c(C)nc2sc3c(=O)n(-c4ccccc4)cnc3c2c1-c1ccc(Cl)cc1` [P-9], for which the 50% inhibitory concentration (IC50) under setting [1] lay in the range of 150 to 1000 nM.

As to `CN(C)c1ccnc2sc3c(=O)n(-c4cccc5nonc45)cnc3c12` [7BR], the IC50 under setting [1] was in the range of 150 to 1000 nM.

As to `COc1ccc(-n2cnc3c(sc4ncnc(NC5CC5)c43)c2=O)c(C)c1` [95AW], the IC50 under setting [2] is < 50 nM.

Turning to `CON(C)c1ccnc2sc3c(=O)n(-c4ccc(Cl)cc4)cnc3c12` [28DN], under setting [2], the IC50 is < 50 nM.

Turning to `O=c1c2sc3nccc(NC4CC4)c3c2ncn1-c1cccc(Cl)c1` [28CB], the IC50 under setting [2] was in the range of 50 to 150 nM.

With `Cc1cc(F)cc(-n2cnc3c(sc4nccc(N(C)C)c43)c2=O)c1` [7DX], the IC50 under setting [1] is < 50 nM.

On to `CN(C)c1cc(C#N)nc2sc3c(=O)n(C4CCCCC4)cnc3c12` [compound 84], for which, under setting [1], the IC50 fell in the range of 50 to 150 nM.

With `CN(C)c1ccnc2sc3c(=O)n(C4CCC5(CC4)OCCO5)cnc3c12` [compound 19], under setting [1], the IC50 lay in the range of 150 to 1000 nM.

For the compound `CNc1ncnc2sc3c(=O)n(-c4ccc(Br)cc4)cnc3c12` [95BD], the IC50 under setting [2] is < 50 nM.

As to `CN(C)c1cccc2sc3c(=O)n(-c4cccc(F)c4)cnc3c12` [103M], the IC50 under setting [2] was 150 to 1000 nM.

As to `CC(C)Nc1ccnc2sc3c(=O)n(-c4ccc(F)cc4)cnc3c12` [28GX], under setting [2], the IC50 was in the range of 150 to 1000 nM.

On to `CN(C)c1cccc2sc3c(=O)n(C4CCCCC4)cnc3c12` [103B], for which the IC50 under setting [1] was 150 to 1000 nM.

With `COCCCNc1ccnc2sc3c(=O)n(-c4ccc(OC)cc4)cnc3c12` [28HL], under setting [2], the concentration for half-maximal inhibition (IC50) is < 50 nM.
